From US20130165635A1 (priority 2010, published 2013)
Numbered stars: 1 amine (or outer) side, 2 acyl side, 3 side chain; on linkers, the order of the positions; unused ones are H or OH. Bridge positions count the residues as written; N and C are the ends. Square brackets hold non-standard residues; d marks the D form. Peptide text beside a SMILES is read from it. X1 = CC(C)CCCCCCCCC[C@H](CC(=O)[*:1])O[*:2]

Tested on: Trichophyton mentagrophytes
Assay type: cell-based

In the case of `CC(C)CCCCCCCCC[C@@H]1CC(=O)N[C@@H](CCC(=O)O)C(=O)N[C@@H](CC(C)C)C(=O)N[C@H](CC(C)C)C(=O)N[C@@H](C(C)C)C(=O)N[C@@H](CC(=O)O)C(=O)N[C@H](CC(C)C)C(=O)N[C@@H](CC(C)C)C(=O)O1` [surfactin] (EL[dL]VD[dL]L; linker N-C via X1), the “antifungal activity (growth inhibition of test microorganism)” value is reported as “weaker than iturin A, but slight inhibitory activities”.
